Assay results as given in paper PMC10056443, “Derivatives of Amaryllidaceae Alkaloid Ambelline as Selective Inhibitors of Hepatic Stage of Plasmodium berghei Infection In Vitro” (Pharmaceutics, 2023).
Like-named read-outs stand apart in the source and are kept apart here.

Experiments:
[1] = test system: hepatic stage of P. berghei; experiment: In vitro activity against P. berghei hepatic stages (luciferase-expressing sporozoites in Huh-7 cells, bioluminescence); assay type: cell-based, Plasmodium berghei; design: INFECTION (IC50 determination): unit not given here; details: for activity at 1 µM / activity at 10 µM / IC50: Plasmodium berghei; for activity at 1 µM / activity at 10 µM: Huh-7, 48 h, read-out: INFECTION Ø screening; for activity at 1 µM / activity at 10 µM / INFECTION (IC50 determination): DMSO = 100
Method in brief: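 Huh-7 hepatoma cells pretreated with compounds 1 h, then infected with luciferase-expressing P. berghei sporozoites (1 × 10^4/well, 1:1 ratio) and incubated at 37 °C.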

Huh-7 cell line = experiment: Huh-7 cell confluency by alamarBlue assay during hepatic-stage test; assay type: cell-based
Method in brief: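 Huh-7 human hepatoma cells pre-treated with compound in infection medium 1 h before luciferase-expressing P. berghei sporozoites were added (1:1, 1 × 10^4 per well), then incubated 46 h at 37 °C, 5% CO2. Confluency assessed indirectly by alamarBlue; IC50 from nonlinear-regression fit of normalized dose-response curves.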

[2] = test system: P. falciparum NF54 ring-stage synchronized cultures; experiment: In vitro activity against P. falciparum blood stages (flow cytometry, SYBR green I); assay type: cell-based, Plasmodium falciparum; details: Control = 7.76333, 48 h
Procedure: Activity against the blood stage of P. falciparum infection was assessed by flow cytometry analysis following the incubation of either test compounds or the drug vehicle (DMSO) with ring-stage synchronized parasite cultures, as previously described. Stock solutions of the test compounds, as well as of the positive control compound chloroquine, were prepared in DMSO and diluted to test concentrations in complete malaria culture medium (CMCM), i.e., 1640 RPMI medium supplemented with 25 mM HEPES, 2.4 mM L-glutamine, 50 µg/mL gentamicin, 0.5% w/v Albumax, 11 mM glucose, 1.47 mM hypoxanthine, and 37.3 mM NaHCO3. Samples at tested concentration were then incubated with ring-stage synchronized cultures of P. falciparum NF54 at 2.5% hematocrit and at approximately 1% parasitemia in 96-well plates at 37 °C in a 5% CO2 and 5% O2 atmosphere. Forty-eight hours post incubation, parasite load was assessed by flow cytometry, upon staining with the DNA-specific dye SYBR green I. Approximately 100,000 events were analyzed in each flow cytometry measurement.

[3] = Cytotoxicity assessment in vitro (MTT assay); assay type: cell-based; details: human
Method in brief: (§1)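 Human HepG2 hepatocellular carcinoma cells (passage 20–25) were treated with compound at 10 μM in triplicate for 24 h at 37 °C, 5% CO2. Viability was then measured by MTT: 3 h incubation, formazan dissolved in DMSO, absorbance read at 570 nm.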

HepG2 cells = experiment: Cytotoxicity assessment in vitro (MTT assay); assay type: cell-based
Method in brief: as §1

[4] = Huh-7, mean, unit (Table 1: µM), read-out: Antiplasmodial activity - Ø IC50
[5] = Huh-7, replicate 1, unit (Table 1: µM), read-out: Antiplasmodial activity - IC50 determination, 1. measurement
[6] = Huh-7, replicate 2, unit (Table 1: µM), read-out: Antiplasmodial activity - IC50 determination, 2. measurement
[7] = Huh-7, replicate 3, unit (Table 1: µM), read-out: Antiplasmodial activity - IC50 determination, 3. measurement
[8] = hepatic stage, Huh-7 cells, parasite load 48 h post-infection, read-out: IC50 P. berghei

Row | Compound | activity at 1 µM [1] [%] | activity at 10 µM [1] [%] | IC50 [1, 4] [µM] | IC50 [1, 5] [µM] | IC50 [1, 6] [µM] | IC50 [1, 7] [µM] | IC50 [1, 8] [µM] | CELL CONFLUENCY Ø screening (Huh-7 cell line; human, 46 h, 1 µM, pH 7) | CELL CONFLUENCY Ø screening (Huh-7 cell line; human, 46 h, 10 µM, pH 7) | Ø screening, blood stage parasite load ([2]; at 10 nM) | Ø screening, blood stage parasite load ([2]; at 500 nM) | Ø screening, blood stage parasite load ([2]; at 100 nm) | viability at 24 h, 10 µM [3] [%] | 1. screening of cytotoxic potential, HepG2 cell line (HepG2 cells; human, 24 h, 10 µM) | 2. screening of cytotoxic potential, HepG2 cell line (HepG2 cells; human, 24 h, 10 µM) | 3. screening of cytotoxic potential, HepG2 cell line (HepG2 cells; human, 24 h, 10 µM) | Ø screening, HepG2 (sheet Graphs) (HepG2 cells; human, 24 h, 10 µM) | other results
1 | COc1cc(OC)cc(C(=O)O[C@@H]2CN3Cc4c(cc5c(c4OC)OCO5)[C@@]24C=C[C@H](OC)C[C@@H]34)c1 [28m, 11-O-(3,5-Dimethoxybenzoyl)ambelline] | 4.97 | 0.465 | 0.0483 | 0.0413 | 0.0646 | 0.0389 | 0.048 ± 0.014 | 75.47 | 66.23 | 7.527 | 6.707 | 7.237 | 87 ± 6 | 83.99 | 94 | 84.39 | 87.46 | INFECTION (IC50 determination) ([1]; at 0.0001 µM): 91.9843; INFECTION (IC50 determination) ([1]; at 0.001 µM): 94.6285; INFECTION (IC50 determination) ([1]; at 0.01 µM): 82.6124; INFECTION (IC50 determination) ([1]; at 0.05 µM): 46.9733; INFECTION (IC50 determination) ([1]; at 0.1 µM): 24.6613; INFECTION (IC50 determination) ([1]; at 0.5 µM): 8.963; Huh-7 cell viability (Huh-7 cell line): cell viability was not affected at antiplasmodial-active concentrations; CELL CONFLUENCY (IC50 determination) (Huh-7 cell line; human, 46 h, 0.0001 µM, pH 7): 108.569; CELL CONFLUENCY (IC50 determination) (Huh-7 cell line; human, 46 h, 0.001 µM, pH 7): 114.348; CELL CONFLUENCY (IC50 determination) (Huh-7 cell line; human, 46 h, 0.01 µM, pH 7): 105.456; CELL CONFLUENCY (IC50 determination) (Huh-7 cell line; human, 46 h, 0.05 µM, pH 7): 107.735; CELL CONFLUENCY (IC50 determination) (Huh-7 cell line; human, 46 h, 0.1 µM, pH 7): 107.6; CELL CONFLUENCY (IC50 determination) (Huh-7 cell line; human, 46 h, 0.5 µM, pH 7): 97.6188
2 | CCC(=O)O[C@@H]1CN2Cc3c(cc4c(c3OC)OCO4)[C@@]13C=C[C@H](OC)C[C@@H]23 [28b, 11-O-Propionylambelline] | 77.6 | 64.5 |  |  |  |  | > 10 | 98.41 | 102.4 | 8.397 | 7.243 | 7.813 | 58 ± 4 | 62.58 | 57.25 | 55.25 | 58.36 | 
3 | COc1c2c(cc3c1OCO3)[C@]13C=C[C@H](OC)C[C@H]1N(C2)C[C@H]3OC(=O)c1cc(C)cc(C)c1 [28h, 11-O-(3,5-Dimethylbenzoyl)ambelline] | 8.82 | 0.852 | 0.1 | 0.0992 | 0.0828 | 0.118 | 0.1 ± 0.018 |  |  | 8.137 | 6.735 | 6.763 |  |  |  |  |  | CELL CONFLUENCY Ø screening (Huh-7 cell line; at 1 μM, DMSO = 100, in % (unit assumed)): 93.78; CELL CONFLUENCY Ø screening (Huh-7 cell line; at 10 μM, DMSO = 100, in % (unit assumed)): 54.73; viability at 24 h, 10 µM ([3]; c = 10 µM, 24 h, MTT, read-out: HepG2 % of cell viability compared to non-treated control (100%)): 74 ± 13%; Ø screening, HepG2 (sheet Graphs) (HepG2 cells; c = 10 μM, DMSO = 100, in %): 74.24; 1. screening of cytotoxic potential, HepG2 cell line (HepG2 cells; c = 10 μM, replicate 1, in %): 61.45; 2. screening of cytotoxic potential, HepG2 cell line (HepG2 cells; c = 10 μM, replicate 2, in %): 88.22; 3. screening of cytotoxic potential, HepG2 cell line (HepG2 cells; c = 10 μM, replicate 3, in %): 73.05
4 | COc1c2c(cc3c1OCO3)[C@]13C=C[C@H](OC)C[C@H]1N(C2)C[C@H]3OC(=O)c1ccc([N+](=O)[O-])cc1Cl [28s, 11-O-(2-Chloro-4-nitrobenzoyl)ambelline] | 48.2 | 1.4 |  |  |  |  |  | 95.79 | 77.1 | 7.46 | 7.523 | 7.653 | 54 ± 6 | 55.56 | 46.62 | 58.6 | 53.59 | activity against P. berghei hepatic stages ([1]; screening at 10 and 1 µM / IC50 determination): not dose-dependent
5 | COc1c2c(cc3c1OCO3)[C@]13C=C[C@H](OC)C[C@H]1N(C2)C[C@H]3OC(=O)c1ccc(C)cc1 [28g, 11-O-(4-Methylbenzoyl)ambelline] | 23.1 | 0.21 | 0.402 | 0.345 | 0.46 |  | 0.402 ± 0.081 | 89.36 | 93.96 | 5.187 | 4.26 | 4.963 | 50 ± 6 | 50.18 | 56.25 | 43.46 | 49.96 | 
6 | CCCCC(=O)O[C@@H]1CN2Cc3c(cc4c(c3OC)OCO4)[C@@]13C=C[C@H](OC)C[C@@H]23 [28d, 11-O-Pentanoylambelline] | 93.9 | 25.2 | 4.08 | 5.65 | 2.14 | 4.44 | 4.08 ± 1.78 | 95.31 | 93.14 | 6.99 | 6.78 | 7.043 | 71 ± 7 | 73.78 | 63.13 | 76.88 | 71.26 | 
